Source: ChEMBL document CHEMBL3856205, “Synthesis and biological evaluation of novel 4-hydroxytamoxifen analogs as estrogen-related receptor gamma inverse agonists” (Eur J Med Chem, 2016)

Tests used:
[1] = target: T1, Steroid hormone receptor ERR1 (Homo sapiens, UniProt P11474); test: Inhibition of fluorescien-conjugated coactivator PGC1a binding to ERRalpha (unknown origin) after 1 hr by TR-FRET assay
T1 sequence (P11474 whole entry): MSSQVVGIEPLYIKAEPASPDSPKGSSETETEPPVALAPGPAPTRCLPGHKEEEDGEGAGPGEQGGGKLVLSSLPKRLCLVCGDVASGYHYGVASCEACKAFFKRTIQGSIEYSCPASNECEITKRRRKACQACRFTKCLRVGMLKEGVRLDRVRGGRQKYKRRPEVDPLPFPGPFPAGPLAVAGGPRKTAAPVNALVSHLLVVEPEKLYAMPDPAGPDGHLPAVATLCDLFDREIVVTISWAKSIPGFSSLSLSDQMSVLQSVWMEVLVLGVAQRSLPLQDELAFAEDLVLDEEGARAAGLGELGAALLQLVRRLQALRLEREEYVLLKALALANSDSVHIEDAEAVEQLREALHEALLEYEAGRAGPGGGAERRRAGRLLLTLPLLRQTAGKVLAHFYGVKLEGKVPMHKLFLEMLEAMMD

CYP1A2 = target: T2, CYP1A2 (Homo sapiens, UniProt P05177); test: Inhibition of CYP1A2 in human liver microsomes assessed as remaining activity by measuring phenacetin O-deethylase activity at 10 uM pre-incubated for 5 mins followed by NADPH regenerating system addition by LC-MS/MS analysis relative to control; assay type: ADME; details: probe phenacetin (O-deethylation), read-out: Activity
T2 sequence (P05177 whole entry): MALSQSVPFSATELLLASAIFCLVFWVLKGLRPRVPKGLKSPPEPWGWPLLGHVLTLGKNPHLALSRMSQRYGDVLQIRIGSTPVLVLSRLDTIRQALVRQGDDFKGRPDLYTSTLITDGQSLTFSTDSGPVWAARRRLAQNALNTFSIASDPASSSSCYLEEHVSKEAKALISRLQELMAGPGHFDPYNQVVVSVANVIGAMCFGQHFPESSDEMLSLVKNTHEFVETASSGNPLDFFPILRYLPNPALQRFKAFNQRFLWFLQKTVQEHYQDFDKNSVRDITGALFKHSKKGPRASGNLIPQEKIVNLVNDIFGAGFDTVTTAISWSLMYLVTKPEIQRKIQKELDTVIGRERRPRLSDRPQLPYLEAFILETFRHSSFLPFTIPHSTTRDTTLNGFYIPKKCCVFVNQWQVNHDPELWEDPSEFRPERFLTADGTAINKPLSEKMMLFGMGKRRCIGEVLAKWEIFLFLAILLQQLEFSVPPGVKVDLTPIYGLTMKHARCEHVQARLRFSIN

[2] = target: T3, Steroid hormone receptor ERR2 (Homo sapiens, UniProt O95718); test: Inhibition of fluorescien-conjugated coactivator PGC1a binding to ERRbeta (unknown origin) after 1 hr by TR-FRET assay
T3 sequence (O95718 whole entry): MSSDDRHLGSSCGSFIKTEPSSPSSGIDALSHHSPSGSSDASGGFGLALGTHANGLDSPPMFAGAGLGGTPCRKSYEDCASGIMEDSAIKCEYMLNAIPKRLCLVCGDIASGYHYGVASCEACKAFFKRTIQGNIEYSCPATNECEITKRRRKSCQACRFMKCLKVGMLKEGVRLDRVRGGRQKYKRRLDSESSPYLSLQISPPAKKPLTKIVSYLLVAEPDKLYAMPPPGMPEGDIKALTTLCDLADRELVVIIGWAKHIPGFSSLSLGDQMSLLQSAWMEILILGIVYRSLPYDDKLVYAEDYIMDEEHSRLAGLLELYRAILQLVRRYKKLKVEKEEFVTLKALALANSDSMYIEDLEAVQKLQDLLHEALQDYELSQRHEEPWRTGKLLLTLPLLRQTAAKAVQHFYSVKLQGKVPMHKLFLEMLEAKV

Estrogen receptor = target: T4, Estrogen receptor (Homo sapiens, UniProt P03372)
T4 sequence (P03372 whole entry): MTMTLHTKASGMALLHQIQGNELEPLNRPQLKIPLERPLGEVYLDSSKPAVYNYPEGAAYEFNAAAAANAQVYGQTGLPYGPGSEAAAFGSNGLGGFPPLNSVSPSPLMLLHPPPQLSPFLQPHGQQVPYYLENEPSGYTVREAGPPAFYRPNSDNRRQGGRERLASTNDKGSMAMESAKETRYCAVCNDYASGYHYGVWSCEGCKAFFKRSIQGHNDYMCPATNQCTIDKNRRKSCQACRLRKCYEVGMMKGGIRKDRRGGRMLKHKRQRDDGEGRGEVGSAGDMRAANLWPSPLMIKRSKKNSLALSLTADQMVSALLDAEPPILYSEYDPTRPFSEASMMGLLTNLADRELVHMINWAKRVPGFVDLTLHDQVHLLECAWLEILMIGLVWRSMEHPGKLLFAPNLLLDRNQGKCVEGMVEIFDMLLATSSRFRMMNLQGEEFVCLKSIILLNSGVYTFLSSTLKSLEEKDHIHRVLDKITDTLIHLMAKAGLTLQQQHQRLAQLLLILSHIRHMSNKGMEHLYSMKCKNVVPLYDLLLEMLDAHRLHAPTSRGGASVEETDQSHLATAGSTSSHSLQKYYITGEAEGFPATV
Description: Inhibition of fluorescien-conjugated coactivator PGC1a binding to ERalpha (unknown origin) after 1 hr by TR-FRET assay

CYP2C9 = CYP2C9 (Homo sapiens, UniProt P11712); test: Inhibition of CYP2C9 in human liver microsomes assessed as remaining activity by measuring tolbutamide 4-hydroxylase activity at 10 uM pre-incubated for 5 mins followed by NADPH regenerating system addition by LC-MS/MS analysis relative to control; assay type: ADME; details: probe tolbutamide (4-hydroxylation), read-out: Activity
Chain of CYP2C9 (P11712 whole entry): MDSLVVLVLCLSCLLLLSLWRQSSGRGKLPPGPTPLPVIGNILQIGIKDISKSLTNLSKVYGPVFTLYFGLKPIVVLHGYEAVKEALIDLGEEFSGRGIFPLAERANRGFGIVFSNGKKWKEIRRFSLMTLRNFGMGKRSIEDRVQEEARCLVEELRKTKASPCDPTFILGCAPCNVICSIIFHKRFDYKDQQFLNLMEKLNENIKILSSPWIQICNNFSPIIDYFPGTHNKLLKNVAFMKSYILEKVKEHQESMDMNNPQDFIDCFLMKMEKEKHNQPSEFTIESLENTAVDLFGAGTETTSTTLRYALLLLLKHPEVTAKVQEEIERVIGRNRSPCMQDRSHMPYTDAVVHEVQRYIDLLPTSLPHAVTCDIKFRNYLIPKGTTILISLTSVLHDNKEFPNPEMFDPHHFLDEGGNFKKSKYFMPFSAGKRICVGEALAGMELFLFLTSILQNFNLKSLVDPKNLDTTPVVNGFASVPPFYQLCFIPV

CYP2C19 = CYP2C19 (Homo sapiens, UniProt P33261); test: Inhibition of CYP2C19 in human liver microsomes assessed as remaining activity by measuring S-mephenytoin 4-hydroxylase activity at 10 uM pre-incubated for 5 mins followed by NADPH regenerating system addition by LC-MS/MS analysis relative to control; assay type: ADME; details: probe S-mephenytoin (4-hydroxylation), read-out: Activity
Chain of CYP2C19 (P33261 whole entry): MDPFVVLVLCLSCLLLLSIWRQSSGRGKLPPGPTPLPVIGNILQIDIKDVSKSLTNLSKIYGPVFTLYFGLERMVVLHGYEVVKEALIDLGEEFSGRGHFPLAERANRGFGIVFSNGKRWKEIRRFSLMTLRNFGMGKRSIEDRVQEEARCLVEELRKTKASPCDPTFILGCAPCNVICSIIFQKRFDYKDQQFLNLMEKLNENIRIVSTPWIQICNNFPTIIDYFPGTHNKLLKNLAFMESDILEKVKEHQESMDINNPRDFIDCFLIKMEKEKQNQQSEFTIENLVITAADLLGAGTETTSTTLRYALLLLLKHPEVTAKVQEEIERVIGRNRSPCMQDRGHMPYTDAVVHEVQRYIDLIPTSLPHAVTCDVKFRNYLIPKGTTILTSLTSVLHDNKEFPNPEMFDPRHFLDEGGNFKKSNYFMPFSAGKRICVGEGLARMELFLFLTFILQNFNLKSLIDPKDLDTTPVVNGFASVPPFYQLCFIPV

CYP2D6 = CYP2D6 (Homo sapiens, UniProt P10635); test: Inhibition of CYP2D6 in human liver microsomes assessed as remaining activity by measuring dextromethorphan O-demethylase activity at 10 uM pre-incubated for 5 mins followed by NADPH regenerating system addition by LC-MS/MS analysis relative to control; assay type: ADME; details: probe dextromethorphan (O-demethylation), read-out: Activity
Chain of CYP2D6 (P10635 whole entry): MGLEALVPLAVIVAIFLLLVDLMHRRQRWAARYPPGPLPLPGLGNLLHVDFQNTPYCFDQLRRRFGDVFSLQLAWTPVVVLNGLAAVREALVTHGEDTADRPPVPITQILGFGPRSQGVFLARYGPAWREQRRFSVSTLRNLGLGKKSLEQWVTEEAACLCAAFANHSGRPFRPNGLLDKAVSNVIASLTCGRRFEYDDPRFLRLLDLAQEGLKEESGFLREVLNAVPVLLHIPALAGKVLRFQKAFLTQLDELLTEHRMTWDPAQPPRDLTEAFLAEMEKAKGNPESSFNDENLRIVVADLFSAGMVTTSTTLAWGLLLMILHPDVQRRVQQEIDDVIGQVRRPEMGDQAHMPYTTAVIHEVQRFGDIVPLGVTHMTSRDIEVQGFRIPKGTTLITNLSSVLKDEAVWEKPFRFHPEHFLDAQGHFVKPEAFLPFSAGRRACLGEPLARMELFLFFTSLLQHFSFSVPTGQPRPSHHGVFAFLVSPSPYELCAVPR

CYP3A4 = CYP3A4 (Homo sapiens, UniProt P08684); test: Inhibition of CYP3A4 in human liver microsomes assessed as remaining activity by measuring midazolam 1'-hydroxylase activity at 10 uM pre-incubated for 5 mins followed by NADPH regenerating system addition by LC-MS/MS analysis relative to control; assay type: ADME; details: probe midazolam (1'-hydroxylation), read-out: Activity
Chain of CYP3A4 (P08684 whole entry): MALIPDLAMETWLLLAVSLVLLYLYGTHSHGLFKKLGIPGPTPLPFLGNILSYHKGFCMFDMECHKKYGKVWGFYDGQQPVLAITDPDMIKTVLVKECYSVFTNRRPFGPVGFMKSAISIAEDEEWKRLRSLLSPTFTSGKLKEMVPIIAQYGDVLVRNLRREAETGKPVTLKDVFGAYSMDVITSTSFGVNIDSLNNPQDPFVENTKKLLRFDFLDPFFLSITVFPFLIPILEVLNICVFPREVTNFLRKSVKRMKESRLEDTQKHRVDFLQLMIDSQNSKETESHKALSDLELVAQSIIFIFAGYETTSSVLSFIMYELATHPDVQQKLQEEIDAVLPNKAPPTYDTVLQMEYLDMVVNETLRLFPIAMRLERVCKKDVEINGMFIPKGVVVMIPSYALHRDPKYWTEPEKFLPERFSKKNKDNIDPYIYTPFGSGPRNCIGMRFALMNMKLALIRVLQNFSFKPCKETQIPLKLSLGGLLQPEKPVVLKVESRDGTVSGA

[3] = Metabolic stability in dog liver microsomes assessed as compound remaining at 1 uM after 30 mins in presence of NADPH by LC-MS/MS analysis; assay type: ADME, Canis lupus familiaris; details: read-out: Stability
[4] = Permeability of the compound in PBS at pH 7.4 at 10 uM after 5 hrs by LC-MS/MS analysis; assay type: ADME; details: not told, read-out: permeability
[5] = target: T5, Estrogen-related receptor gamma (Homo sapiens, UniProt P62508)
T5 sequence (P62508 whole entry): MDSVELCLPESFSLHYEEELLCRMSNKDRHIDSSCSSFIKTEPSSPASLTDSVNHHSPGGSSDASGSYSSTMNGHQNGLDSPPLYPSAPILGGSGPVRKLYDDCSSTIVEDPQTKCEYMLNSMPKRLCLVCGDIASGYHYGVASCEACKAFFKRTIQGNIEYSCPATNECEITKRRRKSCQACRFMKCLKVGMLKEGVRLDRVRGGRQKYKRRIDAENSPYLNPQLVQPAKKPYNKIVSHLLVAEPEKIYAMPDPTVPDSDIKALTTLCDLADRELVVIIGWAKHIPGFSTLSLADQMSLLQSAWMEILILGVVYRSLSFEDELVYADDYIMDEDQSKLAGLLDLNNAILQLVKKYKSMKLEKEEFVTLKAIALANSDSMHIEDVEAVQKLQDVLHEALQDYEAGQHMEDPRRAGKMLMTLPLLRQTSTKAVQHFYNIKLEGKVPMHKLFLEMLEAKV
Description: Inhibition of fluorescien-conjugated coactivator PGC1a binding to GST-tagged human ERRgamma LBD after 1 hr by TR-FRET assay

[6] = target: T5, Estrogen-related receptor gamma; remark: listed apart in the source
Description: Inverse agonist activity at ERRgamma (unknown origin) expressed in human AD293 cells after 24 hrs by beta-galactosidase/luciferase reporter gene assay

in vitro [7] = details: human, liver microsomes
Description: Metabolic stability in human liver microsomes assessed as compound remaining at 1 uM after 30 mins in presence of NADPH by LC-MS/MS analysis

in vitro [8] = details: rat, liver microsomes
Description: Metabolic stability in rat liver microsomes assessed as compound remaining at 1 uM after 30 mins in presence of NADPH by LC-MS/MS analysis

in vitro [9] = details: mouse, liver microsomes
Description: Metabolic stability in mouse liver microsomes assessed as compound remaining at 1 uM after 30 mins in presence of NADPH by LC-MS/MS analysis

IC50 [1]	activity at 10 µM (CYP1A2)	IC50 [2]	IC50 (Estrogen receptor)	activity at 10 µM (CYP2C9)	activity at 10 µM (CYP2C19)	activity at 10 µM (CYP2D6)	activity at 10 µM (CYP3A4)	remaining at 0.5 h, 1 µM [3]	Papp at 5 h, 10 µM [4]	IC50 [5]	IC50 [6]	remaining at 0.5 h, 1 µM (in vitro [7])	remaining at 0.5 h, 1 µM (in vitro [8])	remaining at 0.5 h, 1 µM (in vitro [9])	SMILES
> 10 µM	91%	> 10 µM	3.34 µM	44%	76%	89%	85%	76%	0.03 ×10⁻⁶ cm/s	0.19 µM	0.187 µM	83%	79%	20%	CNCCOc1ccc(/C(=C(/CCCO)c2ccccc2)c2ccc(O)cc2)cc1.Cl
> 10 µM	82%	> 10 µM	0.875 µM	90%	70%	98%	93%	22%	1.02 ×10⁻⁶ cm/s	0.18 µM	0.079 µM	18%	32%	10%	CCN(CC)CCOc1ccc(/C(=C(/CCCO)c2ccccc2)c2ccc(O)cc2)cc1.Cl
> 10 µM	> 100%	> 10 µM	> 10 µM	60%	> 100%	> 100%	> 100%	13%	9.94 ×10⁻⁶ cm/s	0.27 µM	0.669 µM	59%	25%	16%	Cc1ccc(/C(=C(\CCCO)c2ccccc2)c2ccc(OCCN(C)C)cc2)cc1.Cl
